Data reported in patent publication US12037354B2, “Cyclic pantetheine derivatives and uses thereof” (VectivBio Comet AG, priority 2018, dated 2024).

Tested on: primary culture of rat embryo mesencephalic cells (microglia, astrocytes and neurons)
Assay: Neuroprotection against LPS damage (NO, TNF-α, IL-1β release, tyrosine hydroxylase positive neurons), Example 848
Format: cell-based
Conditions: 10 uM; for % reversion of NO release from neurons: after 5 days of LPS exposure
Experimental: Drug preparation. […] The stock solutions will be prepared 1000× the concentration in 100% DMSO. The final concentration of the vehicle (DMSO) is set at 0.1%.
Test animals. Pregnant Wistar rats (Janvier; France) are used for the study. They are group-housed and maintained in a room with controlled temperature (21-22° C.) and a reversed light-dark cycle (12 h/12 h; lights on: 17:30-05:30; lights off: 05:30-17:30) with food and water available ad libitum.
The protocol is performed in 3 independent cultures. For each culture, each condition is performed in sextuplicate.
Female rat of 15 days gestation is killed by cervical dislocation. Fetuses are removed from the uterus and their brains are harvested and placed in ice-cold medium (Leibovitz's L15 medium, Gibco). Only ventral mesencephalic flexure is used for the cell preparations. The midbrain is dissociated by trypsinization. The reaction is stopped, and the suspension is triturated and centrifuged. The pellet of dissociated cells is resuspended in culture medium consisted of DMEM-F12 (Gibco), containing 10% FBS (ATCC), 10% Horse serum (Gibco) and 2 mM L-glutamine (Gibco). Viable cells are counted and seeded on 96-well plates, precoated with poly-L-lysine. Cells are maintained in a humidified incubator at 37° C. in 5% CO2-95% air atmosphere. Half of the medium is changed on day 2 and day 5.
Treatment. On day 7, culture media are removed and replaced by new medium consisting of DMEM-F12 (Gibco) supplemented with 2% FBS (ATCC), 2% Horse serum (Gibco) and 2 mM L-glutamine (Gibco) and containing vehicle or test substances. After 1-hour exposure, LPS at 10 ng/ml is added and exposure further continued for 24 hours or 5 days period.
Inflammatory response measurement and neuronal death evaluation. NO production is measured in the media 24 h and 5 days after LPS exposure using the Griess reagent kit (Molecular Probes). The Griess reagent Assay is a colorimetric reaction assay which measures the conversion of a sulfanilic salt into an azo dye product by nitrite. Visible wavelength absorbance data is collected using a 96-well plate reader at 570 nm (Multiskan EX, Thermo Fisher, France).
IL-10 and TNF-α release are measured in the media 24 h after LPS exposure using the ELISA development kit (PeproTech). The ELISA plate, previously coated with anti-IL-10 or anti-TNF-α antibody at 1 μg/ml, is incubated 1 h with PBS containing 1% of BSA (bovine serum albumin). […] Visible wavelength absorbance data is collected using a 96-well plate reader at 405 nm with wavelength correction set at 650 nm (Multiskan EX, Thermo Fisher, France). […]
Statistical Analysis. The drug-induced effect on NO and cytokines is calculated by setting the response of the LPS-stimulated control as 100%. […]

SMILES: CC(=O)CC(=O)SCCNC(=O)CCNC(=O)[C@@H]1OP(=O)(O)OCC1(C)C [Compound 42]
- % reversion of TH positive neurons (after 5 days of LPS exposure (Example 949)): ≥15%
- % reversion of TH positive neurons (after 5 days of LPS exposure (Example 950)): ≥50%
- % reversion of NO release from neurons (compared to LPS induction alone): ≥10%
- % reversion of NO release from neurons (LPS-induced NO release): ≥10%
